Results as given in US20230279020A9, “CARM1 INHIBITORS AND USES THEREOF” (Epizyme, Inc., priority 2013, published 2023).

Molecular target: Human CARM1 (PRMT4) (Homo sapiens (Human), UniProt Q86X55)
Experiment: CARM1 enzyme assay on peptide substrate (3H-SAM Flashplate)
Details: Biochemical potencies, classification codes; read-out: Biochem IC50

Sequence of Human CARM1 (PRMT4) (Q86X55 other isoform, or with tags, fused parts or gaps isoform Q86X55-1): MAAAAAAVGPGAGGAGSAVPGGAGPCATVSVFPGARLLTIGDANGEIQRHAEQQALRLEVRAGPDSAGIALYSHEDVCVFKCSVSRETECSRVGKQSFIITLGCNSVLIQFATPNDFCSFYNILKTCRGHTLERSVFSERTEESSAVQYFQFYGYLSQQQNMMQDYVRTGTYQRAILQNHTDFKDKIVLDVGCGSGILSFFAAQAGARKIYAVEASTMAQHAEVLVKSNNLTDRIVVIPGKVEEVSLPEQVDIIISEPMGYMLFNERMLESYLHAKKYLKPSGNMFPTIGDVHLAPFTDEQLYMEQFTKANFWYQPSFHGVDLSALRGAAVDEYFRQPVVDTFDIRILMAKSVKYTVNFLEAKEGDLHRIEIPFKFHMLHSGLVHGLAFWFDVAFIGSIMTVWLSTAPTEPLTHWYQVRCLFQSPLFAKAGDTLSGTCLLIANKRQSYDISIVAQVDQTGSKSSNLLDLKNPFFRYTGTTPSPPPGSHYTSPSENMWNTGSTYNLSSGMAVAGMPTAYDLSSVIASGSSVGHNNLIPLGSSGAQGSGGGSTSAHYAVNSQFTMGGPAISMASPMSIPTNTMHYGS

Row | SMILES | IC50
1 | CNCC(O)COc1cccc(-c2nc(N[C@@H]3CC[C@H](O)C3)c(C)c(-c3c(C)noc3C)n2)c1 (some centres unmarked) [Example 163-1a] | < 0.1 µM
2 | CNCC(O)COc1cccc(-c2nc(-c3c(C)noc3C)c(C)c(N3C[C@@H](C)O[C@@H](C)C3)n2)c1 (some centres unmarked) [Example 164-1a] | < 0.1 µM
3 | CNCC(O)COc1cccc(-c2nc(-c3c(C)noc3C)cc(N3CCN(n4c(C)nnc4C)CC3)n2)c1 (centres unmarked) [Example 165-1a] | < 0.1 µM
4 | CNCC(O)COc1cccc(-c2nc(-c3c(C)noc3C)cc(N3CCN(C4CCOCC4)CC3)n2)c1 (centres unmarked) [Example 166-1a] | < 0.1 µM
5 | CCS(=O)(=O)N1CCCC(CNc2nc(-c3cccc(OCC(O)CNC)c3)nc(-c3c(C)noc3C)c2C)C1 (centres unmarked) [Example 167-1a] | < 0.1 µM
6 | CNC[C@@H](O)COc1ccc(Cl)c(-c2nc(N[C@@H]3CCN(C4CC4)C[C@@H]3F)c(C)c(-c3c(C)noc3C)n2)c1 [Example 167-3] | < 0.1 µM
7 | CCS(=O)(=O)N1CCC(Nc2nc(-c3cccc(OCC(O)CNC)c3)nc(-c3c(C)noc3C)c2C)CC1 (centres unmarked) [Example 168-1a] | < 0.1 µM
8 | CNC[C@H](O)COc1cccc(-c2nc(NC3CCN(C(=O)OC)CC3)c(C)c(-c3c(C)noc3C)n2)c1 [Example 169-1a] | < 0.1 µM
9 | CNC[C@@H](O)COc1ccc(Cl)c(-c2nc(N[C@H]3CCN(C(=O)OC)[C@@H](C)C3)c(C)c(-c3c(C)noc3C)n2)c1 [Example 169-3] | < 0.1 µM
10 | CNC[C@@H](O)COc1cccc(-c2nc(NC3CCN(C(=O)OC)CC3)c(C)c(-c3c(C)noc3C)n2)c1 [Example 170-1a] | < 0.1 µM
11 | CNC[C@@H](O)COc1ccc(Cl)c(-c2nc(N[C@H]3CCN(C4CC4)[C@@H](C)C3)c(C)c(-c3c(C)noc3C)n2)c1 [Example 170-3] | < 0.1 µM
12 | CNCC(O)COc1cccc(-c2nc(NCC3CN(C)CCO3)c(C)c(-c3c(C)noc3C)n2)c1 (centres unmarked) [Example 171-1a] | < 0.1 µM
13 | Cc1noc(C)c1-c1nc(-c2cc(OC[C@H](O)CN(C)C)ccc2Cl)nc(N[C@H]2CCN(C3CC3)[C@@H](C)C2)c1C [Example 171-3] | < 0.1 µM
14 | CCOC(=O)N1CCC(N(C)c2cc(-c3c(C)noc3C)nc(-c3cccc(OCC(O)CNC)c3)n2)CC1 (centres unmarked) [Example 172-1a] | < 0.1 µM
15 | CNCC(O)COc1cccc(-c2nc(-c3c(C)noc3C)cc(N3CCN(CC(F)F)[C@H](C)C3)n2)c1 (some centres unmarked) [Example 174-1a] | < 0.1 µM
16 | CNCC(O)COc1cccc(-c2nc(-c3c(C)noc3C)cc(N3CCN(C)[C@H](C)C3)n2)c1 (some centres unmarked) [Example 175-1a] | < 0.1 µM
17 | CNCC(O)COc1cccc(-c2nc(-c3c(C)noc3C)c(C)c(N3CCO[C@@H](CN(C)C(=O)N(C)C)C3)n2)c1 (some centres unmarked) [Example 176-1a] | < 0.1 µM
18 | CNCC(O)COc1cccc(-c2nc(-c3c(C)noc3C)c(C)c(N3CCC[C@@H](NC)C3)n2)c1 (some centres unmarked) [Example 177-1a] | < 0.1 µM
19 | CC[C@H]1CN(c2nc(-c3cccc(OCC(O)CNC)c3)nc(-c3c(C)noc3C)c2C)CCN1C1CC1 (some centres unmarked) [Example 178-1a] | < 0.1 µM
20 | CNCC(O)COc1cccc(-c2nc(-c3c(C)noc3C)c(C)c(N3CCC4(CC3)CN(S(C)(=O)=O)C4)n2)c1 (centres unmarked) [Example 179-1a] | < 0.1 µM
21 | CNCC(O)COc1cccc(-c2nc(OC3CCOCC3)c(C)c(-c3c(C)noc3C)n2)c1 (centres unmarked) [Example 181-1a] | < 0.1 µM
22 | CNCC(O)COc1cccc(-c2nc(OCC3CCOCC3)c(C)c(-c3c(C)noc3C)n2)c1 (centres unmarked) [Example 182-1a] | < 0.1 µM
23 | CNC[C@@H](O)COc1cccc(-c2nc(NCC3CCOCC3)c(C)c(-c3c(C)noc3C)n2)c1 [Example 183-1a] | < 0.1 µM
24 | CNCC(O)COc1cccc(-c2nc(NCC3CCN(C(=O)OC)CC3)c(C)c(-c3c(C)noc3C)n2)c1 (centres unmarked) [Example 184-1a] | < 0.1 µM
25 | CNCC(O)COc1cccc(-c2nc(NC3CCN(C4CC4)CC3)c(C)c(-c3c(C)noc3C)n2)c1 (centres unmarked) [Example 185-1a] | < 0.1 µM
26 | CNCC(O)COc1cccc(-c2nc(NC3CCN(C(=O)OC)C3)c(C)c(-c3c(C)noc3C)n2)c1 (centres unmarked) [Example 186-1a] | < 0.1 µM
27 | CNCC(O)COc1cccc(-c2nc(NC3CCN(CC(F)F)CC3)c(C)c(-c3c(C)noc3C)n2)c1 (centres unmarked) [Example 188-1a] | < 0.1 µM

Now from value to compound:

Row | IC50 | SMILES
28 | < 0.1 µM | CNC[C@@H](O)COc1ccc(Cl)c(-c2nc(-c3c(C)noc3C)c(C)c(N3CC(CO)(CO)C3)n2)c1 [Example 163-3]
29 | < 0.1 µM | CNC[C@@H](O)COc1ccc(F)c(-c2nc(-c3c(C)noc3C)c(C)c(N3Cc4cc(F)cnc4C3)n2)c1 [Example 164-3]
30 | < 0.1 µM | CNC[C@@H](O)COc1ccc(Cl)c(-c2nc(-c3c(C)noc3C)c(Cl)c(N3Cc4cccnc4C3)n2)c1 [Example 168-3]
31 | < 0.1 µM | CNC[C@@H](O)COc1ccc(Cl)c(-c2nc(N[C@H]3C[C@@H](C)O[C@@H](C)C3)c(C)c(-c3c(C)noc3C)n2)c1 [Example 172-3]
32 | < 0.1 µM | CNC[C@@H](O)COc1ccc(Cl)c(-c2nc(N[C@H]3C[C@@H](C)O[C@@H](C)C3)c(Cl)c(-c3c(C)noc3C)n2)c1 [Example 173-3]
33 | < 0.1 µM | CNC[C@@H](O)COc1ccc(Cl)c(-c2nc(-c3c(C)noc3C)c(C)c(N3CCc4ccncc43)n2)c1 [Example 174-3]
34 | < 0.1 µM | CNC[C@@H](O)COc1ccc(Cl)c(-c2nc(-c3c(C)noc3C)c(C)c(N3CC4(CCN(C(=O)OC)C4)C3)n2)c1 [Example 175-3]
35 | < 0.1 µM | CNC[C@@H](O)COc1ccc(Cl)c(-c2nc(-c3c(C)noc3C)c(C)c(N3CC4(CCN(C5CC5)C4)C3)n2)c1 [Example 176-3]
36 | < 0.1 µM | CNC[C@@H](O)COc1ccc(Cl)c(-c2nc(-c3c(C)noc3C)c(C)c(N3CCC4(CN(C(=O)OC)C4)C3)n2)c1 [Example 177-3]
37 | < 0.1 µM | CNC[C@@H](O)COc1ccc(Cl)c(-c2nc(-c3c(C)noc3C)c(C)c(N3CCC4(C3)CN(C3CC3)C4)n2)c1 [Example 178-3]
38 | < 0.1 µM | CNC[C@@H](O)COc1ccc(Cl)c(-c2nc(N[C@@H]3CO[C@H](C)C3)c(C)c(-c3c(C)noc3C)n2)c1 [Example 179-3]
39 | < 0.1 µM | CNC[C@@H](O)COc1ccc(Cl)c(-c2nc(N[C@@H]3CO[C@H](C)C3)c(Cl)c(-c3c(C)noc3C)n2)c1 [Example 180-3]
40 | < 0.1 µM | CNC[C@@H](O)COc1ccc(Cl)c(-c2nc(N[C@@H]3CO[C@@H](C)C3)c(Cl)c(-c3c(C)noc3C)n2)c1 [Example 181-3]
41 | < 0.1 µM | CNC[C@@H](O)COc1ccc(Cl)c(-c2nc(N[C@@H]3C[C@@H](C)O[C@@H](C)C3)c(C)c(-c3c(C)noc3C)n2)c1 [Example 182-3]
42 | < 0.1 µM | CNC[C@@H](O)COc1ccc(Cl)c(-c2nc(N[C@@H]3C[C@@H](C)O[C@@H](C)C3)c(Cl)c(-c3c(C)noc3C)n2)c1 [Example 183-3]
43 | < 0.1 µM | CNC[C@@H](O)COc1ccc(Cl)c(-c2nc(-c3c(C)noc3C)c(C)c(N3CC(F)(F)C3)n2)c1 [Example 184-3]
44 | < 0.1 µM | CNC[C@@H](O)COc1ccc(F)c(-c2nc(-c3c(C)noc3C)c(C)c(N3Cc4cc(Cl)cnc4C3)n2)c1 [Example 185-3]
45 | < 0.1 µM | CNC[C@@H](O)COc1ccc(Cl)c(-c2nc(-c3c(C)noc3C)c(C)c(N3C[C@H]4COC[C@H]4C3)n2)c1 [Example 186-3]
46 | < 0.1 µM | CNCC(O)COc1ccc(Cl)c(-c2nc(NC3CCN(C(=O)OC)CC3)c(Cl)c(-c3c(C)noc3C)n2)c1 (centres unmarked) [Example 187-1a]
47 | < 0.1 µM | CNC[C@@H](O)COc1ccc(Cl)c(-c2nc(-c3c(C)noc3C)c(C)c(N3CCOC3=O)n2)c1 [Example 187-3]
